The values that follow come from patent US20100099845A1, “PROTECTED ENANTIOPURE TRIFLUOROTHREONINES AND METHODS OF MAKING AND USING SAME” (University of Utah Research Foundation, priority 2006, published 2010).

Series [1] is described as follows: Relative hydrophobicity by reversed-phase HPLC retention time (method of Hodges and coworkers). The note with it: for retention time, tR (measure of hydrophobicity): Kromasil C18, 0.2% TFA water/ACN linear gradient 0.25% ACN/min from 55% B, 0.3 mL/min, 25° C., co-injection, FIG. 4; for retention time difference ΔtR relative to allo-D-Thr/allo-L-Thr pair: same reversed-phase HPLC conditions, CF3 vs CH3. The class given is physicochemical. Here is the method: As fluorination can decrease the hydrophilicity of a molecule [(a) Böhm, H-J.; Banner, D.; Bendels, S.; Kansy, M.; Kuhn, B.; Müller, K.; Obst-Sander, U.; Stahl, M. Chem BioChem. 2004, 5, 637-643. […] 1996, 276, 1049-1057.], the hydrophobicity of Fmoc-tfT (1a and 1b) relative to their non-fluorinated counterparts was determined. The chromatography method developed by Hodges and coworkers [Kovacs, J. M.; Mant, C. T.; Hodges, R. S. Biopolymers (Peptide Science) 2006, 84, 283-297.], who determined the relative hydrophobicity of 23 L-amino acids and their D-enantiomers, was used. As pointed out by Hodges and coworkers [Kovacs, J. M.; Mant, C. T.; Hodges, R. S. Biopolymers (Peptide Science) 2006, 84, 283-297.], a criterion for measuring true hydrophobicity of an amino acid is that the D/L enantiomers should give the same retention time, tR. […] All of the enantiomeric pairs, allo-D-Thr/allo-L-Thr (tR=7.2 min), D-Thr/L-Thr (tR=9.2 min) and allo-D-tfT/allo-L-tfT (tR=11.6 min), co-elute, satisfying the criterion established by Hodges and coworkers. [Kovacs, J. M.; Mant, C. T.; Hodges, R. S. Biopolymers (Peptide Science) 2006, 84, 283-297.] In reversed-phase chromatography, a larger retention time typically indicates a more hydrophobic molecule. The allo-D-tfT/allo-L-tfT pair is more retentive than the allo-D-Thr/allo-L-Thr pair (ΔtR=11.6−7.2=4.2 min). […] [Kovacs, J. M.; Mant, C. T.; Hodges, R. S. Biopolymers (Peptide Science) 2006, 84, 283-297.]
In FIG. 4, all chromatography runs followed exactly the same conditions used by Hodges and coworkers [Zhang, X. G.; Ni, W. J.; van der Donk, W. A. J. Org. Chem. 2005, 70, 6685-6692.]. The HPLC conditions are as follows: column, Kromasil C18 (150 mm×2.1 mm I.D., 5 μm, 100 Å pore size, Higgins Analytical, Inc., CA); mobile phase, A: 0.2% TFA (trifluoroacetic acid) in water, B: 0.2% TFA in ACN (acetonitrile); condition, linear AB gradient (0.25% ACN/min, starting from 55% B); flow rate, 0.3 mL/min; temperature, 25° C. 1a and 1b were purified by silica-gel column chromatography and dissolved in mobile phase B before injection. allo-D-N-Fmoc-O-tert-butyl-Thr and allo-L-N-Fmoc-O-tert-butyl-Thr were from BACHEM California Inc. D-N-Fmoc-O-tert-butyl-Thr and L-N-Fmoc-O-tert-butyl-Thr were from Novabiochem.

The conditions of series [2]: literature values of Kovacs, Mant, Hodges 2006; cited from earlier work.

SMILES strings stand for the structures.

`CC(C)(C)O[C@@H]([C@@H](NC(=O)OCC1c2ccccc2-c2ccccc21)C(=O)O)C(F)(F)F` [allo-D-tfT, (2R,3S)-2-(((9H-fluoren-9-yl)methoxy)carbonylamino)-3-tert-butoxy-4,4,4-trifluorobutanoic acid]: in series [1], the “retention time, tR (measure of hydrophobicity)” value (shortened to “retention time, tR”) was 11.6 min and the “retention time difference ΔtR relative to allo-D-Thr/allo-L-Thr pair” value worked out at 4.2 min.
Turning to `C[C@@H](OC(C)(C)C)[C@H](NC(=O)OCC1c2ccccc2-c2ccccc21)C(=O)O` [L-Thr, (2S,3R)-N-Fmoc-O-tent-butyl-threonine], the “retention time, tR” value in series [1] is recorded as 9.2 min.
Consider `C[C@H](OC(C)(C)C)[C@H](NC(=O)OCC1c2ccccc2-c2ccccc21)C(=O)O` [allo-L-Thr, (2S,3S)-N-Fmoc-O-tent-butyl-threonine], for which, in series [1], the “retention time, tR” value was found to be 7.2 min.
`CC(C)(C)O[C@H]([C@H](NC(=O)OCC1c2ccccc2-c2ccccc21)C(=O)O)C(F)(F)F` [allo-L-tfT, (2S,3R)-4,4,4-trifluoro-N-Fmoc-O-tert-butyl-threonine]: in series [1], the “retention time, tR” value came out at 11.6 min and the “retention time difference ΔtR relative to allo-D-Thr/allo-L-Thr pair” value is recorded as 4.2 min.
As to `N[C@@H](CS)C(=O)O` [Cys, cysteine], in series [2], the “retention time difference ΔtR relative to Ala” value is on record as 4.8 min.
With `C[C@H](OC(C)(C)C)[C@@H](NC(=O)OCC1c2ccccc2-c2ccccc21)C(=O)O` [D-Thr, (2R,3S)-N-Fmoc-O-tert-butyl-threonine], in series [1], the “retention time, tR” value is given as 9.2 min.
Regarding `C[C@H](N)C(=O)O` [Ala], the “retention time difference ΔtR relative to Gly” value in series [2] was 2.8 min.
In the case of `CC(C)[C@H](N)C(=O)O` [Val], the “retention time difference ΔtR relative to Ala” value in series [2] was 10.6 min.
Consider `C[C@@H](OC(C)(C)C)[C@@H](NC(=O)OCC1c2ccccc2-c2ccccc21)C(=O)O` [allo-D-Thr, (2R,3R)-N-Fmoc-O-tert-butyl-threonine], for which the “retention time, tR” value in series [1] is 7.2 min.
